This test relates to full depth incision in the skin. In words: Wound healing in irradiated and wounded mice (histology, collagen type I immunohistochemistry). As to conditions: 1 mg per mouse i.p. every other day, 14 days. Type of test: in vivo. The protocol:
The effect of Halofuginone on wound healing was examined by using mice which were first irradiated and then wounded.
The experiment was conducted as follows. First, C3H, defined-flora, pathogen-free female mice of 12-14 weeks of age were anesthetized with 60 mg/kg sodium […]. The mice were then shaved. One group of mice was then irradiated as follows. First, a flap of skin about 40 mm long and about 20 mm wide was pulled through a slit in the lead cover of an irradiation jig and secured with tape, so that only the flap of skin was exposed. This exposed skin as then irradiated by using a 175 kVp/20 mA orthovoltage X-ray source, with a 2 mm Cu filter at a dose rate of 1.0 Gy/min. A standard dose of 18 Gy was delivered.
All of the mice were then wounded by making a full depth incision, about 25 mm long, in the skin along the midline of the lower back. Note that for the irradiated animals, the wound was made within the irradiated area, immediately following irradiation. For all mice, the incision was immediately closed by 3-4 metallic wound closure clips which were removed 2 days later.
After wounding, the mice were injected i.p. every other day, either with 1 mg per mouse of Halofuginone or with saline as a control. […]

With `O=C(CC1NCCC[C@H]1O)Cn1cnc2cc(Br)c(Cl)cc2c1=O` (some centres unmarked) [Halofuginone], the “collagen content in the wound” value (irradiated mouse (18 Gy)) is on record as “significantly lowered”. Further, the “healing of the wound” value (wounded and irradiated skin) is recorded as “the wound still healed”.

Source of the values: patent publication US20060293351A1, “Promotion of wound healing” (priority 1999, published 2006).
